According to publication PMC3634466, “Cantharidin Impedes Activity of Glutathione S-Transferase in the Midgut of Helicoverpa armigera Hübner” (International Journal of Molecular Sciences, 2013):

Legend:
[1] = biological target: T1, HaGST (recombinant rHaGST, delta-class glutathione S-transferase; GenBank EF033109 / ABK40535) (Helicoverpa armigera, UniProt A0MSN0)
T1 sequence (A0MSN0 1-220): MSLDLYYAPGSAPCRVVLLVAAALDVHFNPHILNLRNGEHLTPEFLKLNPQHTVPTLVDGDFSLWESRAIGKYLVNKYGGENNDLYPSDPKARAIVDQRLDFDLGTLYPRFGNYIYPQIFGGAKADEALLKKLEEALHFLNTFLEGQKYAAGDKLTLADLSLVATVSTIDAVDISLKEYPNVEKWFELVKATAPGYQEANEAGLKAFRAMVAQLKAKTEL

[2] = biological target: T1, HaGST (recombinant rHaGST, delta-class glutathione S-transferase; GenBank EF033109 / ABK40535); assay: GSH/CDNB conjugation assay at […] nm with purified rHaGST; Lineweaver-Burk plot; type: biochemical; set-up: His-tagged full-length rHaGST expressed from pET-28a in E. coli BL-21 (DE-3), Ni-NTA purified; 220 residues

Compound	enzyme kinetics of purified rHaGST with variable GSH (Lineweaver-Burk), CDNB as [1]	IC50 [2] [µM]
N[C@@H](CCC(=O)N[C@@H](CS)C(=O)NCC(=O)O)C(=O)O [GSH, glutathione]	the rHaGST activity was calculated under different concentrations of GSH	–
C[C@@]12C(=O)OC(=O)[C@]1(C)[C@H]1CC[C@@H]2O1 [cantharidin]	–	12.5
